The source of these data is ChEMBL document CHEMBL4385591, “Structural studies of the binding of an antagonistic cyclic peptide to the VEGFR1 domain 2” (Eur J Med Chem, 2019).

The structures appear in SMILES notation. The source made the active and inactive calls. The calls are words filed in the database; no cut-off is given here. Peptide text beside a SMILES is read from it.

One experiment relates to RF/6A. Conditions: Macaca mulatta, 50 uM.
Another experiment relates to HUVEC. The following applies: Homo sapiens, 50 uM.

Description for HUVEC: Antiangiogenic activity in HUVEC cells assessed as inhibition of VEGF-A-induced microtube formation at 50 uM pre-incubated for 15 mins followed by VEGF-A stimulation for 4 hrs by matrigel based capillary tube formation assay
Description for RF/6A: Antiangiogenic activity in rhesus monkey RF/6A cells assessed as inhibition of VEGF-A-induced microtube formation at 50 uM pre-incubated for 15 mins followed by VEGF-A stimulation for 4 hrs by matrigel based capillary tube formation assay

For `CC(C)C[C@@H]1NC(=O)CNC(=O)[C@H](CCC(=O)O)NC(=O)[C@H](CC(=O)O)NC(=O)[C@H](CCCCN)NC(=O)[C@H](Cc2ccc(O)cc2)NC(=O)CC[C@@H](C(=O)NCCc2ccc(O)c(O)c2)NC(=O)[C@H](CCC(=O)O)NC1=O` (HELM PEPTIDE1{Y.K.D.E.G.L.E.E.[Oc1ccc(CCN[*:1])cc1O]}$PEPTIDE1,PEPTIDE1,1:R1-8:R3$$$V2.0), the inhibition result in the experiment on RF/6A and in the experiment with HUVEC was “Active” throughout.
